Reference: patent US4443436A, “C-20-Modified macrolide derivatives of the macrolide antibiotics tylosin, desmycosin, macrocin, and lactenocin” (Eli Lilly and Company, priority 1982, dated 1984)
Converted amounts (≈) assume the structure as drawn. “And” between values parts separate entries of the source, which are not always exact repeats. Identical values can stand only once. Like-named read-outs stand apart in the source and are kept apart here.

Columns and labels:
[1] = tested on: Staphylococcus aureus X1.1; assay: MIC, standard agar-dilution assay, Staphylococcus aureus X1.1; type: cell-based
[2] = tested on: Staphylococcus aureus V41; assay: MIC, standard agar-dilution assay, Staphylococcus aureus V41; type: cell-based
[3] = tested on: Staphylococcus aureus X400; assay: MIC, standard agar-dilution assay, Staphylococcus aureus X400; type: cell-based
[4] = tested on: Staphylococcus aureus S13E; assay: MIC, standard agar-dilution assay, Staphylococcus aureus S13E; type: cell-based
[5] = tested on: Staphylococcus epidermidis EPI1; assay: MIC, standard agar-dilution assay, Staphylococcus epidermidis EPI1; type: cell-based; settings: Staphylococcus epidermidis EPI1, agar dilution
[6] = tested on: Streptococcus pyogenes C203; assay: MIC, standard agar-dilution assay, Streptococcus pyogenes C203; type: cell-based; settings: Streptococcus pyogenes C203, agar dilution
[7] = tested on: Streptococcus pneumoniae Park I; assay: microbe, parasite or virus in culture; type: cell-based
[8] = tested on: Streptococcus Group D X66; assay: MIC, standard agar-dilution assay, Streptococcus Group D X66; type: cell-based; settings: Streptococcus Group D X66, agar dilution
Streptococcus Group 9960 = assay: MIC, standard agar-dilution assay, Streptococcus Group 9960; type: cell-based; settings: Streptococcus Group 9960, agar dilution
Staphylococcus aureus = assay: MIC, broth-dilution microtiter test, Staphylococcus aureus; type: cell-based; settings: broth-dilution microtiter
From the text: (§1) The MIC's in Table X were obtained using conventional broth-dilution microtiter tests.

Streptococcus bovis 80 = assay: MIC, broth-dilution microtiter test, Streptococcus bovis 80; type: cell-based; settings: Streptococcus bovis 80, broth-dilution microtiter
From the text: as §1

[9] = tested on: Pasteurella multocida 17E; assay: MIC, broth-dilution microtiter test, Pasteurella multocida 17E; type: cell-based; settings: Pasteurella multocida 17E, bovine isolate, broth-dilution microtiter
From the text: as §1

[10] = tested on: Pasteurella multocida 60A; assay: MIC, broth-dilution microtiter test, Pasteurella multocida 60A; type: cell-based; settings: Pasteurella multocida 60A, avian isolate, broth-dilution microtiter
From the text: as §1

[11] = tested on: Pasteurella hemolytica 22C; assay: MIC, broth-dilution microtiter test, Pasteurella hemolytica 22C; type: cell-based; settings: Pasteurella hemolytica 22C, broth-dilution microtiter
From the text: as §1

Mycoplasma gallisepticum [12] = assay: MIC, broth-dilution microtiter test, Mycoplasma gallisepticum; type: cell-based; settings: Mycoplasma gallisepticum, broth-dilution microtiter
From the text: as §1

Mycoplasma synoviae = assay: MIC, broth-dilution microtiter test, Mycoplasma synoviae; type: cell-based; settings: Mycoplasma synoviae, broth-dilution microtiter
From the text: as §1

Mycoplasma hyorhinis = assay: MIC, broth-dilution microtiter test, Mycoplasma hyorhinis; type: cell-based
From the text: as §1

Mycoplasma hyopneumoniae = assay: MIC, broth-dilution microtiter test, Mycoplasma hyopneumoniae; type: cell-based; settings: Mycoplasma hyopneumoniae, broth-dilution microtiter
From the text: as §1

[13] = tested on: Streptococcus pyogenes C203; assay: In vivo protection of mice experimentally infected with S. pyogenes C203; settings: mice, doses given 1 and 4 hours post-infection; for ED50: Streptococcus pyogenes
Procedure: The C-20 modified derivatives of this invention have shown in vivo antimicrobial activity against experimentally-induced infections in laboratory animals. When two doses of test compound were administered to mice experimentally infected with S. pyogenes C203, the activity observed was measured as an ED50 value [effective dose in mg/kg to protect 50% of the test animals: see Warren Wick, et al., J. Bacteriol. 81, 233-235 (1961)].

Pasteurella multocida [14] = assay: Subcutaneous treatment of Pasteurella multocida-infected chicks; type: in vivo, one-day-old chicks; settings: 30 mg/kg × 2, 1 and 4 hours post-challenge
Outline: (§2)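 Dosing either by gavage at 1 and 5 h after infection, or subcutaneously at 30 mg/kg at 1 and 4 h after infection. Birds were day-old chicks infected s.c. with 0.1 ml of avian Pasteurella multocida culture (twenty-hour tryptose broth, diluted 10^-4).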

Pasteurella multocida [15] = assay: Oral (gavage) treatment of Pasteurella multocida-infected chicks; type: in vivo, one-day-old chicks
Outline: as §2

Mycoplasma gallisepticum [16] = assay: Antimycoplasmal activity in chicks infected with Mycoplasma gallisepticum; type: in vivo, two- to three-day-old chicks; settings: gavage five times, equivalent to 0.5 g/gal; for Number with Antibodies/Number Tested: antibodies to M. gallisepticum; for Number with Antibodies/Number Tested / Number with Air-Sac Lesions/Number Treated: 21 days post-infection
Procedure: In these tests infections were induced in chicks by injecting 0.2 ml of a broth culture of M. gallisepticum into the abdominal air sac of two- to three-day-old chicks. The compounds were administered by gavage five times at a dose equivalent to 0.5 g/gal (on the day of challenge once prior to and once following the challenge, two times on the next day and once on the third day). Twenty-one days post-infection, the chicks were weighed, a blood sample was taken, and the chicks were sacrificed. The presence or absence of air-sac lesions was recorded.

[17] = tested on: Staphylococcus epidermidis EPI2; assay: MIC, standard agar-dilution assay, Staphylococcus epidermidis EPI2; type: cell-based; settings: Staphylococcus epidermidis EPI2; agar dilution
[18] = tested on: Haemophilus influenzae Holt; assay: MIC, standard agar-dilution assay, Haemophilus influenzae Holt; type: cell-based; settings: Haemophilus influenzae Holt; ampicillin-sensitive strain; agar dilution
[19] = tested on: Haemophilus influenzae R252; assay: MIC, standard agar-dilution assay, Haemophilus influenzae R252; type: cell-based; settings: Haemophilus influenzae R252; ampicillin-resistant strain; agar dilution
[20] = Plasma level after oral administration to dogs; settings: female mongrel dogs; single 15 mg/kg oral dose

`CCC1OC(=O)CC(O)C(C)C(OC2OC(C)C(O)C(N(C)C)C2O)C(CCSc2nnnn2C)CC(C)C(=O)C=CC(C)=CC1COC1OC(C)C(O)C(OC)C1OC` (stereo not drawn) [Compound 24, 20-DH-DO-20-[(1-N-Methyltetrazol-5-yl)thio]desmycosin] showed an MIC ([1]; Staphylococcus aureus, X1.1) of 0.5 µg/mL (≈ 0.573 µM), an MIC ([2]; Staphylococcus aureus, V41) of 0.5 µg/mL (≈ 0.573 µM) and an MIC ([3]; Staphylococcus aureus, X400) of 1 µg/mL (≈ 1.15 µM). For the same compound, the MIC ([4]; Staphylococcus aureus, S13E) was 0.5 µg/mL (≈ 0.573 µM), the MIC ([5]; read-out: MIC) was 0.25 µg/mL (≈ 0.287 µM) and the MIC ([6]; read-out: MIC) was 0.25 µg/mL (≈ 0.287 µM). For the same compound, the MIC ([7]; Streptococcus pneumoniae) was 2 µg/mL (≈ 2.29 µM), the MIC ([8]; read-out: MIC) was 16 µg/mL (≈ 18.3 µM) and the MIC (Streptococcus Group 9960; GROUP9960, read-out: MIC) was 32 µg/mL (≈ 36.7 µM). The MIC (Staphylococcus aureus; read-out: MIC) was 0.78 µg/mL (≈ 0.894 µM), the MIC (Streptococcus bovis 80; Streptococcus equinus, read-out: MIC) was 12.5 µg/mL (≈ 14.3 µM) and the MIC ([9]; read-out: MIC) was 12.5 µg/mL (≈ 14.3 µM). It also gave an MIC ([10]; read-out: MIC) of 12.5 µg/mL (≈ 14.3 µM), an MIC ([11]; read-out: MIC) of 12.5 µg/mL (≈ 14.3 µM) and an MIC (Mycoplasma gallisepticum [12]; Mycoplasmoides gallisepticum, read-out: MIC) of 1.56 µg/mL (≈ 1.79 µM). It also gave an MIC (Mycoplasma synoviae; Mycoplasmopsis synoviae, read-out: MIC) of 0.78 µg/mL (≈ 0.894 µM), an MIC (Mycoplasma hyorhinis; Mycoplasma) of 50 µg/mL (≈ 57.3 µM) and an MIC (Mycoplasma hyopneumoniae; Mesomycoplasma hyopneumoniae, read-out: MIC) of 12.5 µg/mL (≈ 14.3 µM). The ED50 ([13]; C203, sc, subcutaneous, read-out: ED50, Subcutaneous) was 2.4 mg/kg, the ED50 ([13]; C203, oral, read-out: ED50, Oral) was 50 mg/kg and the “Number of Deaths/Number Treated” value (Pasteurella multocida [14]) was 2/10 and 0/10. The “Number of Deaths/Number tested” value (Pasteurella multocida [15]; 1.0 g/gal equivalent) was 2/9, the “Number of Deaths/Number tested” value (Pasteurella multocida [15]; 2.0 g/gal equivalent) was 1/9 and the “Number with Antibodies/Number Tested” value (Mycoplasma gallisepticum [16]) was 10/10. The Mortality (Mycoplasma gallisepticum [16]) was 0/10 and the “Number with Air-Sac Lesions/Number Treated” value (Mycoplasma gallisepticum [16]) was 6/10.
Compound `CC[C@H]1OC(=O)C[C@@H](O)[C@H](C)[C@@H](O[C@@H]2O[C@H](C)[C@H](O)[C@H](N(C)C)[C@H]2O)[C@@H](CCOc2ccccc2)C[C@@H](C)C(=O)/C=C/C(C)=C/[C@@H]1COC1O[C@H](C)[C@@H](O)[C@@H](OC)[C@H]1OC` (stereo partly drawn) [Compound 33, 20-DH-20-O-Phenyldesmycosin] has an MIC ([1]; Staphylococcus aureus X1.1, agar dilution) of 0.25 µg/mL (≈ 0.294 µM), an MIC ([2]; Staphylococcus aureus V41, penicillin-resistant strain, agar dilution) of 0.25 µg/mL (≈ 0.294 µM) and an MIC ([3]; Staphylococcus aureus X400, methicillin-resistant strain, agar dilution) of 0.25 µg/mL (≈ 0.294 µM). For the same compound, the MIC ([4]; Staphylococcus aureus S13E, agar dilution) was 0.25 µg/mL (≈ 0.294 µM), the MIC [5] was 0.25 µg/mL (≈ 0.294 µM) and the MIC [17] was 0.12 µg/mL (≈ 0.141 µM). It also gave an MIC [6] of 2 µg/mL (≈ 2.35 µM), an MIC ([7]; Streptococcus pneumoniae Park I, agar dilution) of 2 µg/mL (≈ 2.35 µM) and an MIC [8] of 8 µg/mL (≈ 9.41 µM). It also gave an MIC (Streptococcus Group 9960) of 16 µg/mL (≈ 18.8 µM), an MIC [18] of 32 µg/mL (≈ 37.6 µM) and an MIC [19] of 32 µg/mL (≈ 37.6 µM). It also gave an MIC (Staphylococcus aureus) of 0.39 µg/mL (≈ 0.459 µM), an MIC (Streptococcus bovis 80) of 6.25 µg/mL (≈ 7.35 µM) and an MIC [9] of 12.5 µg/mL (≈ 14.7 µM). For the same compound, the MIC [10] was 12.5 µg/mL (≈ 14.7 µM), the MIC [11] was 25 µg/mL (≈ 29.4 µM) and the MIC (Mycoplasma gallisepticum [12]) was 0.39 µg/mL (≈ 0.459 µM). It also gave an MIC (Mycoplasma synoviae) of 1.56 µg/mL (≈ 1.84 µM), an MIC (Mycoplasma hyorhinis; Mycoplasma hyorhinis, broth-dilution microtiter) of 25 µg/mL (≈ 29.4 µM) and an MIC (Mycoplasma hyopneumoniae) of 25 µg/mL (≈ 29.4 µM). The “ED50, Oral” value ([13]; oral) was 9 mg/kg × 2, the “ED50, Subcutaneous” value ([13]; subcutaneous) was 1.5 mg/kg × 2 and the “Number of Deaths/Number Treated” value (Pasteurella multocida [14]) was 10/10. The “Number of Deaths/Number tested” value (Pasteurella multocida [15]; 1.0 g/gal equivalent) was 9/9, the “Number of Deaths/Number tested” value (Pasteurella multocida [15]; 2.0 g/gal equivalent) was 3/9 and the “Number of Deaths/Number tested” value (Pasteurella multocida [15]; 2.0 g/gal equivalent, 13/20 infected nonmedicated chicks died in this test) was 7/10. The “Number with Antibodies/Number Tested” value (Mycoplasma gallisepticum [16]) was 10/10, the Mortality (Mycoplasma gallisepticum [16]) was 0/10 and the “Number with Air-Sac Lesions/Number Treated” value (Mycoplasma gallisepticum [16]) was 2/10. It also gave a peak plasma level [20] of 2.1 µg/mL.
